{
  "source": "patent US10023614B2",
  "about": "“Oral peptide inhibitors of interleukin-23 receptor and their use to treat inflammatory bowel diseases” (Protagonist Therapeutics, Inc., priority 2014, dated 2018)",
  "test_system": "Sprague Dawley rats, DSS-induced colitis",
  "assay": "Rat colitis model: 9 days of 3% DSS-containing drinking water",
  "assay_type": "in vivo",
  "settings": "100 mg/kg PO, QD; compared to DSS alone, from Day 5",
  "protocol": "In this model, colitis was induced in SD rats by 9 days of ad lib exposure to drinking water containing 3% DSS. The disease activity index (DAI) score and ratio of colon weight:colon length were compared between three study groups (n=6 rats/group): vehicle, 3% DSS, and 3% DSS with positive control (sulfasalazine administered at 100 mg/kg PO, QD).\nAcute colitis was induced by feeding female Sprague Dawley rats with 3% (wt/vol) DSS dissolved in drinking water. […] A neutralizing anti-IL-23p19 antibody was used as a comparator, and was administered intraperitoneally at 4 mg/kg on the same day and fifth day after starting DSS. To quantify colitis with clinical activity, disease activity index (DAI) was determined daily for each animal as an average of three parameters: body weight change (scale 0-3), stool consistency (scale 0-3) and hemoccult blood (scale 0-3), as shown in Table 15. At necropsy, the entire colon was removed from the cecum to the rectum. The colon was measured for length, flushed with PBS to remove feces, weighed, and opened longitudinally to determine macroscopic score.\nStatistical analysis for significance was compared to the vehicle treated group and was determined using Student's T-test (GraphPad Prism). Differences were noted as significant *p<0.05, **p<0.01, ***p<0.001, ****p<0.0001.",
  "data": [
    {"smiles": "O=C(O)c1cc(/N=N/c2ccc(S(=O)(=O)Nc3ccccn3)cc2)ccc1O", "note": "[sulfasalazine]", "values": [
      {"measurement": "disease activity index (DAI) score", "result": "attenuated the disease score"}
    ]}
  ]
}
